ChEMBL document CHEMBL6134890, “Terminally Symmetric β-Turn Peptides for Multidrug-Resistant Bacterial Infections” (J Med Chem, 2025)
Converted amounts (≈) assume the structure as drawn. The source made the active and inactive calls. The calls are words filed in the database; no cut-off is given here. Peptide text beside a SMILES is read from it.

Legend:
Cell membrane [1] = experiment: Disruption of cell membrane in multi-drug resistant Staphylococcus aureus assessed as increase in red fluorescence intensity of PI at 2 times MIC measured for 2 hrs by fluorescence confocal microscopic imaging based analysis; format: subcellular
Cell membrane [2] = experiment: Induction of cytoplasmic membrane depolarization in multi-drug resistant Staphylococcus aureus at 1 to 4 times MIC measured within 1 min by DiSC3-5 fluorescent dye based analysis
Staphylococcus aureus [3] = experiment: Antibiofilm activity in methicillin-resistant Staphylococcus aureus assessed as eradication of formed biofilm by measuring reduction in viable bacterial count measured after 12 hrs by confocal microscopy based analysis; format: functional, organism-based
[4] = Hemolytic activity in human Red blood cell assessed as hemolysis incubated for 1 hrs by microplate reader based analysis; format: toxicity; details: erythrocyte
Escherichia coli [5] = experiment: Antibacterial activity against multidrug resistant Escherichia coli infected in male Kunming mouse model assessed as reduction in wound size measured after 3 to 5 days by caliper method; format: functional, organism-based; details: time 3-5 day
Escherichia coli [6] = experiment: Antibacterial activity against multidrug resistant Escherichia coli infected in male Kunming mouse model assessed as scabs thickening measured after 7 days in presence of levofloxacin by caliper method; format: functional, organism-based; details: time 7.0 day
Cell membrane [7] = experiment: Disruption of cell membrane in multi-drug resistant Staphylococcus aureus assessed as cell shrinkage at 2 times MIC measured for 120 mins by transmission electron microscopy analysis; format: subcellular
Staphylococcus aureus [8] = experiment: Additive antimicrobial activity against multi-drug resistant Staphylococcus aureus assessed as fractional inhibition concentration index in presence levofloxacin by microplate reader analysis; format: functional
Cell membrane [9] = experiment: Disruption of cell membrane in multi-drug resistant Staphylococcus aureus assessed as stomatal formation at 2 times MIC measured for 120 mins by transmission electron microscopy analysis; format: subcellular
Staphylococcus aureus [10] = experiment: Bactericidal activity against multi-drug resistant Staphylococcus aureus assessed as eradication of bacterial growth at 2 times MIC measured after 3 hrs by time-kill kinetic assay relative to control; format: functional
Escherichia coli [11] = experiment: Antibacterial activity against multidrug resistant Escherichia coli infected in male Kunming mouse model assessed as scabs thickening measured after 7 days by caliper method; format: functional, organism-based; details: time 7.0 day
Staphylococcus aureus [12] = experiment: Antimicrobial activity against multi-drug resistant Staphylococcus aureus assessed as reduction in bacterial growth measured after 6 hrs in 25% plasma; format: functional, organism-based
Escherichia coli [13] = experiment: Antibacterial activity against multidrug resistant Escherichia coli infected in male Kunming mouse model assessed as reduction in tissue hemorrhage in presence of levofloxacin by H and E staining based analysis; format: functional, organism-based
Klebsiella pneumoniae = experiment: Antimicrobial activity against multi-drug resistant Klebsiella pneumoniae assessed as reduction in bacterial growth by broth dilution method; format: functional
Escherichia coli [14] = experiment: Antibacterial activity against multidrug resistant Escherichia coli infected in male Kunming mouse model assessed as reduction in epidermal thickening in presence of levofloxacin by H and E staining based analysis; format: functional, organism-based
Cell membrane [15] = experiment: Disruption of cell membrane in multi-drug resistant Escherichia coli assessed as release of cell content at 2 times MIC measured for 120 mins by transmission electron microscopy analysis; format: subcellular
Cell membrane [16] = experiment: Induction of outer membrane permeabilization in multi-drug resistant Escherichia coli assessed as NPN uptake at 1 to 4 times MIC measured within 1 min by fluorescence based analysis; format: subcellular
Escherichia coli [17] = experiment: Antimicrobial activity against multi-drug resistant Escherichia coli assessed as reduction in bacterial growth by broth dilution method; format: functional
Escherichia coli [18] = experiment: Antibacterial activity against multidrug resistant Escherichia coli infected in male Kunming mouse model assessed as reduction in inflammatory cell infiltration in presence of levofloxacin by H and E staining based analysis; format: functional, organism-based
Staphylococcus aureus [19] = experiment: Antibiofilm activity in methicillin-resistant Staphylococcus aureus assessed as eradication of formed biofilm at 1 to 4 times MIC measured after 12 hrs by confocal microscopy based analysis; format: functional, organism-based
Cell membrane [20] = experiment: Disruption of cell membrane in multi-drug resistant Escherichia coli assessed as stomatal formation at 2 times MIC measured for 120 mins by transmission electron microscopy analysis; format: subcellular
Escherichia coli [21] = experiment: Antibacterial activity against multidrug resistant Escherichia coli infected in male Kunming mouse model assessed as reduction in tissue hemorrhage by H and E staining based analysis; format: functional, organism-based
Staphylococcus aureus [22] = experiment: Antimicrobial activity against Staphylococcus aureus ATCC 25923 assessed as reduction in bacterial growth by broth dilution method; format: functional
Escherichia coli [23] = experiment: Bactericidal activity against multi-drug resistant Escherichia coli assessed as eradication of bacterial growth at 2 times MIC measured after 3 hrs by time-kill kinetic assay relative to control; format: functional
Escherichia coli [24] = experiment: Antibiofilm activity against multi-drug resistant Escherichia coli at 0.5 times MIC measured after 24 hrs by crystal violet staining based analysis; format: functional, organism-based
Escherichia coli [25] = experiment: Antibacterial activity against multidrug resistant Escherichia coli infected in male Kunming mouse model assessed as wound healing measured after 11 days in presence of levofloxacin by caliper method relative to control; format: functional; details: time 11 day
Escherichia coli [26] = experiment: Antimicrobial activity against multi-drug resistant Escherichia coli assessed as reduction in bacterial growth in presence of FeCl3; format: functional, organism-based
Escherichia coli [27] = experiment: Antimicrobial activity against multi-drug resistant Escherichia coli assessed as reduction in bacterial growth in presence of KCl; format: functional, organism-based
Escherichia coli [28] = experiment: Antibacterial activity against multidrug resistant Escherichia coli infected in male Kunming mouse model assessed as recovery of mouse weight measured after 11 days; format: functional, organism-based; details: time 11.0 day
Escherichia coli [29] = experiment: Antibiofilm activity in […] assessed as eradication of formed biofilm at 1 to 4 times MIC measured after 12 hrs by confocal microscopy based analysis; format: functional, organism-based
Escherichia coli [30] = experiment: Antimicrobial activity against multi-drug resistant Escherichia coli assessed as reduction in bacterial growth in presence of MgCl2; format: functional, organism-based
Escherichia coli [31] = experiment: Bactericidal activity against multi-drug resistant Escherichia coli at 1 times MIC preincubated with LPS for 1 hrs followed by bacterial addition and measured after 18 hrs by microplate reader based analysis; format: functional, organism-based; details: time 19.0 hrs
Escherichia coli [32] = experiment: Antibacterial activity against multidrug resistant Escherichia coli infected in male Kunming mouse model assessed as wound healing measured after 11 days by caliper method relative to control; format: functional; details: time 11 day
Enterococcus faecalis = experiment: Antimicrobial activity against multi-drug resistant Enterococcus faecalis assessed as reduction in bacterial growth by broth dilution method; format: functional
Cell membrane [33] = experiment: Disruption of cell membrane in multi-drug resistant Escherichia coli assessed as appearance of cell shrinkage at 2 times MIC measured for 120 mins by transmission electron microscopy analysis; format: subcellular
[34] = tested on: Staphylococcus epidermidis; experiment: Antimicrobial activity against multi-drug resistant Staphylococcus epidermidis assessed as reduction in bacterial growth by broth dilution method; format: functional
Escherichia coli [35] = experiment: Antimicrobial activity against multi-drug resistant Escherichia coli assessed as reduction in bacterial growth in presence of NaCl; format: functional, organism-based
Staphylococcus aureus [36] = experiment: Antimicrobial activity against multi-drug resistant Staphylococcus aureus assessed as reduction in bacterial growth in presence of MgCl2; format: functional, organism-based
Escherichia coli [37] = experiment: Antimicrobial activity against multi-drug resistant Escherichia coli assessed as reduction in bacterial growth measured after 6 hrs in 25% plasma; format: functional, organism-based
Escherichia coli [38] = experiment: Antibacterial activity against multidrug resistant Escherichia coli infected in male Kunming mouse model assessed as reduction in bacterial load measured after 11 days in presence of levofloxacin; format: functional, organism-based; details: time 11.0 day
Staphylococcus aureus [39] = experiment: Antimicrobial activity against multi-drug resistant Staphylococcus aureus assessed as reduction in bacterial growth at 2 times MIC measured after 1 hrs in presence of trypsin by microplate reader based analysis; format: functional, organism-based
Cell membrane [40] = experiment: Disruption of cell membrane in multi-drug resistant Escherichia coli assessed as appearance of ruptured cell membrane at 2 times MIC measured for 120 mins by transmission electron microscopy analysis; format: subcellular
Staphylococcus aureus [41] = experiment: Antibacterial activity against Staphylococcus aureus ATCC 25923 at sub-inhibitory concentration measured after 15 passages for 18 hrs; format: functional

For `CC[C@H](C)[C@H](NC(=O)[C@H](CCCCN)NC(=O)[C@@H](NC(=O)[C@H](CCCCN)NC(=O)[C@@H]1CCCN1C(=O)[C@H](Cc1c[nH]c2ccccc12)NC(=O)[C@H](Cc1c[nH]c2ccccc12)NC(=O)[C@H](Cc1c[nH]c2ccccc12)NC(=O)[C@@H]1CCCN1C(=O)[C@H](CCCCN)NC(=O)[C@@H](NC(=O)[C@H](CCCCN)NC(=O)[C@@H](NC(=O)[C@@H](N)CCCCN)[C@@H](C)CC)[C@@H](C)CC)[C@@H](C)CC)C(=O)N[C@@H](CCCCN)C(N)=O` (H-KIKIKPWWWPKIKIK-NH2), the Activity (Cell membrane [1]) was “Active”, the Activity (Cell membrane [2]) was “Active” and the Activity (Staphylococcus aureus [3]) was “Dose-dependent-effect”. The HC10 [4] was > 256 µM, the Activity (Escherichia coli [5]) was “Active” and the Activity (Escherichia coli [6]) was “Active”. The Activity (Cell membrane [7]) was “Active”, the “fractional inhibitory concentration index (FICI)” value (Staphylococcus aureus [8]) was 0.75 and the Activity (Cell membrane [9]) was “Active”. For the same compound, the Activity (Staphylococcus aureus [10]) was 100%, the Activity (Escherichia coli [11]) was “Active” and the Activity (Staphylococcus aureus [12]) was “Active”. The Activity (Escherichia coli [13]) was “Active”, the MIC (Klebsiella pneumoniae) was 4 µM (≈ 7.97 µg/mL) and the Activity (Escherichia coli [14]) was “inactive”. For the same compound, the Activity (Cell membrane [15]) was “Active”, the Activity (Cell membrane [16]) was “Active” and the MIC (Escherichia coli [17]) was 4 µM (≈ 7.97 µg/mL). The Activity (Escherichia coli [18]) was “Active”, the Activity (Staphylococcus aureus [19]) was “Active” and the Activity (Cell membrane [20]) was “Active”. The Activity (Escherichia coli [21]) was “Active”, the MIC (Staphylococcus aureus [22]) was 8 µM (≈ 15.9 µg/mL) and the Activity (Escherichia coli [23]) was 100%. The Activity (Escherichia coli [24]) was “Active”, the Activity (Escherichia coli [25]) was 100% and the Activity (Escherichia coli [26]) was “Active”. For the same compound, the Activity (Escherichia coli [27]) was “Active”, the Activity (Escherichia coli [28]) was “Active” and the Activity (Escherichia coli [29]) was “Active”. For the same compound, the Activity (Escherichia coli [30]) was “Active”, the Activity (Escherichia coli [31]) was “inactive” and the Activity (Escherichia coli [32]) was 100%. For the same compound, the MIC (Enterococcus faecalis) was 4 µM (≈ 7.97 µg/mL), the Activity (Cell membrane [33]) was “Active” and the MIC [34] was 4 µM (≈ 7.97 µg/mL). The Activity (Escherichia coli [35]) was “Active”, the Activity (Staphylococcus aureus [36]) was “Active” and the Activity (Escherichia coli [37]) was “Active”. The Activity (Escherichia coli [38]) was “Active”, the Activity (Staphylococcus aureus [39]) was “inactive” and the Activity (Cell membrane [40]) was “Active”. For the same compound, the Activity (Staphylococcus aureus [41]) was “Active”.
